Measured values from ChEMBL document CHEMBL5223091, “Targeting the Mitotic Kinesin KIF18A in Chromosomally Unstable Cancers: Hit Optimization Toward an In Vivo Chemical Probe” (J Med Chem, 2022).

How the values were obtained:
Tubulin = experiment: Binding affinity to microtubule (unknown origin) by NMR based assay; format: protein-complex assay, Homo sapiens
[1] = molecular target: T1, Kinesin-like protein KIF18A (Homo sapiens, UniProt Q8NI77); experiment: Inhibition of KIF18A ATPase activity (unknown origin)
T1 sequence (Q8NI77 whole entry): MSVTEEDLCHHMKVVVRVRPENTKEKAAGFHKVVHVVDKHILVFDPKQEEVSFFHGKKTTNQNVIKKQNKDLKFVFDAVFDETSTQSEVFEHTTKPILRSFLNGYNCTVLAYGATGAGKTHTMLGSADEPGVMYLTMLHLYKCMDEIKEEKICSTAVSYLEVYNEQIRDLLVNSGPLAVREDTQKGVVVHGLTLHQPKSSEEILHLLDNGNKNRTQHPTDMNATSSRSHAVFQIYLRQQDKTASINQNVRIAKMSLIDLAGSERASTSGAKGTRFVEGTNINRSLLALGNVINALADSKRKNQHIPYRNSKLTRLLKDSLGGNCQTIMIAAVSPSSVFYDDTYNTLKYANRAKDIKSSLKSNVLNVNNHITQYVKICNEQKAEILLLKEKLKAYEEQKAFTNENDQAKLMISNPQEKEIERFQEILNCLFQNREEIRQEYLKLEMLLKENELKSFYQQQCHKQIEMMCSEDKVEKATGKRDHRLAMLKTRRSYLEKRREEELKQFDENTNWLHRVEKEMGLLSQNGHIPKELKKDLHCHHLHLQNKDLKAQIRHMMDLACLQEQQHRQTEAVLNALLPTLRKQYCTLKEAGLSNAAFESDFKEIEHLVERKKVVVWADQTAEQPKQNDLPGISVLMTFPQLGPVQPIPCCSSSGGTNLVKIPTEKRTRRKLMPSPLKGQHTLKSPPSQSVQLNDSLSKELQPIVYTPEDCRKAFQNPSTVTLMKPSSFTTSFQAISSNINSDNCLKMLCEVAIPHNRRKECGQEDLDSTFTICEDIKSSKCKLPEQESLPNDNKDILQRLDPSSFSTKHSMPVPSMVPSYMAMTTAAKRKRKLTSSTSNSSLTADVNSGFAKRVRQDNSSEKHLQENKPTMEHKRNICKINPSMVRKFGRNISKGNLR

[2] = molecular target: T1, Kinesin-like protein KIF18A; experiment: Inhibition of recombinant His-tagged human KIF18A (1 to 467 residues) expressed in Trichoplusia ni insect cells assessed as inhibition of microtubule-stimulated ATPase activity preincubated for 30 mins followed by ATP addition and further incubated for 15 mins by ADP-Glo reagent based assay; parameters: species or system Insect cell
[3] = molecular target: T1, Kinesin-like protein KIF18A; experiment: Binding affinity to KIF18A (unknown origin) by NMR based assay
[4] = Binding affinity to KIF18A- MT complex (unknown origin) by NMR based assay; parameters: species or system Homo sapiens
OVCAR-3 [5] = experiment: Antimitotic activity in human OVCAR-3 cells xenografted in CD-1 mouse assessed as fold increase in mitotic cells in tumor at 100 mg/kg, po measured after 24 hrs relative to control; format: functional
[6] = Plasma concentration in CD-1 mouse xenografted with human OVCAR-3 cells at 100 mg/kg, ip measured upto 24 hrs by LC-MS/MS analysis; format: ADME, organism-based
[7] = AUC (0 to 24 hrs) in CD-1 mouse xenografted with human OVCAR-3 cells at 100 mg/kg, ip by LC-MS/MS analysis; format: ADME, organism-based; parameters: dose 100 mg/kg, route ip; details: in vivo
OVCAR-3 [8] = experiment: Induction of mitotic arrest in human OVCAR-3 cells assessed as p-histone H3 incubated for 24 hrs by mitotic - imaging assay; format: functional, cell-based; details: OVCAR-3, 24 h
[9] = Cmax in CD-1 mouse xenografted with human OVCAR-3 cells at 100 mg/kg, ip by LC-MS/MS analysis; format: ADME, organism-based; parameters: dose 100 mg/kg, route ip; details: in vivo
[10] = Metabolic stability in human liver microsomes assessed as intrinsic clearance at 0.5 uM incubated upto 40 mins by LCMS analysis; format: ADME, Microsome; details: read-out: CLH
[11] = Unbound fraction in CD-1 mouse plasma xenografted with human OVCAR-3 cells at 100 mg/kg, ip by LC-MS/MS analysis; format: ADME, organism-based
OVCAR-3 [12] = experiment: Antiproliferative activity against human OVCAR-3 cells by nuclear count assay; format: functional, cell-based
[13] = Metabolic stability in mouse liver microsomes assessed as intrinsic clearance at 0.5 uM incubated upto 40 mins by LCMS analysis; format: ADME, Microsome; details: read-out: CLH
[14] = Drug metabolism in mouse liver microsomes assessed as di-hydroxylate metabolite formation in presence of NADPH by LC-MS/MS analysis; format: ADME, Microsome
[15] = Drug metabolism in mouse liver microsomes assessed as mono-hyoxylate metabolite formation in presence of NADPH by LC-MS/MS analysis; format: ADME, Microsome

SMILES | IC50 [2] | EC50 (OVCAR-3 [8]) | microsomal CLint at 0.5 µM [10] | EC50 (OVCAR-3 [12]) | microsomal CLint at 0.5 µM [13] | other results
C[C@H](NS(=O)(=O)c1cccc(NC(=O)c2ccc(NC(CO)CO)nc2N2CCC3(CC2)CC3)c1)C(F)(F)F | 0.09 µM | – | – | – | – | Kd (Tubulin): 25 µM; IC50 [1]: 32 µM; Kd [3]: > 50 µM; Kd [4]: 0.15 µM
CC[C@@H]1C(=O)N(C)c2cnc(Nc3ccc(C(=O)NC4CCN(C)CC4)cc3OC)nc2N1C1CCCC1 [BI-2536] | – | – | – | – | – | fold change (FC) (OVCAR-3 [5]): >3
CC(C)(C)NS(=O)(=O)c1cccc(NC(=O)c2ccc(NS(C)(=O)=O)cc2N2CCC3(CC2)CC3)c1 | 0.028 µM | 0.016 µM | 79 µL/min/mg | 0.016 µM | 81 µL/min/mg | concentration at 24 h [6]: 2.9 µM; AUC(0-t) [7]: 147 µM·h; Cmax [9]: 12.6 µM; fraction unbound [11]: 0.007
O=C(Nc1cccc(S(=O)(=O)C2CCCC2)c1)c1cccnc1N1CCC2(CC1)CC2 | 0.41 µM | 1.87 µM | > 399 µL/min/mg | 1.24 µM | > 399 µL/min/mg | Drug metabolism [14]: Metabolite_Detected; Drug metabolism [15]: Metabolite_Detected
